From ChEMBL document CHEMBL1150368, “Detection of triplet repeat sequences in the double-stranded DNA using pyrene-functionalized pyrrole-imidazole polyamides with rigid linkers” (Bioorg Med Chem, 2008)

Experiment: Binding affinity to biotinylated hairpin DNA by surface plasmon resonance assay

Kd: 837 nM
Structure (SMILES): CC(=O)Nc1cn(C)c(C(=O)Nc2cc(C(=O)NCCC(=O)Nc3cn(C)c(C(=O)Nc4cc(C(=O)NCCCC(=O)Nc5cn(C)c(C(=O)Nc6cc(C(=O)NCCC(=O)Nc7cn(C)c(C(=O)Nc8cc(C(=O)NCCC(=O)NCCCN(C)C)n(C)c8)n7)n(CC#Cc7ccc8ccc9cccc%10ccc7c8c9%10)c6)n5)n(CC#Cc5ccc6ccc7cccc8ccc5c6c78)c4)n3)n(C)c2)n1
